# Assay results from publication PMC7692337, “Masked Phenolic-Selenium Conjugates: Potent and Selective Antiproliferative Agents Overcoming P-gp Resistance” (Pharmaceuticals, 2020).
# Read-outs that look alike come from different tables or passages of the source.
# Tests used:
# HeLa (cervix) = test: Antiproliferative activity, NCI protocol; type: cell-based, human
# Procedure: (§1) Organochalcogen derivatives prepared herein were evaluated in vitro as potential antiproliferative agents, using a panel of six human tumour cell lines: A549 (non-small cell lung), HBL-100 (breast), HeLa (cervix), SW1573 (non-small cell lung), as drug sensitive lines, T-47D (breast) and WiDr (colon) as drug resistant lines. In addition to precursors 2, 6, 7, 13, 14, 17, 19, ebselen and cisplatin (CDDP) were used as reference drugs. […] In both cases, the NCI protocol, with minor modifications, was followed; selected data, including the selectivity index (S.I.) can be found in Table 3 and full data in Supporting Information (Table S1).
# (§2) The in vitro antiproliferative activity was assayed using minor modifications of the protocol of the National Cancer Institute (NCI) of the United States against the six human solid tumor cell and the non-tumor cell lines tested.
# [1] = test system: SW1573 (non-small cell lung); test: Antiproliferative activity, NCI protocol; type: cell-based, human
# Procedure: as §1, §2
# HBL-100 (breast) = test: Antiproliferative activity, NCI protocol; type: cell-based, human
# Procedure: as §1, §2
# T-47D (breast) = test: Antiproliferative activity, NCI protocol; type: cell-based, human; conditions: read-out: GI50 T-47D (Breast)
# Procedure: as §1, §2
# WiDr (colon) = test: Antiproliferative activity, NCI protocol; type: cell-based, human; conditions: read-out: GI50 WiDr (Colon)
# Procedure: as §1, §2
# [2] = test system: A549 (non-small cell lung); test: Antiproliferative activity, NCI protocol; type: cell-based, human
# Procedure: as §1, §2
# [3] = test system: six human tumour cell lines (A549, HBL-100, HeLa, SW1573, T-47D, WiDr); test: Antiproliferative activity, panel of six human tumour cell lines; type: cell-based; conditions: summary over the tested tumour cell lines, highest tested concentration 100 µM
# Procedure: as §1, §2
# [4] = Free radical scavenging (DPPH method); conditions: 30 min incubation, absorbance at 515 nm, read-out: EC50 antiradical activity (DPPH)
# Procedure: In vitro antioxidant properties of key unprotected phenolic derivatives were analyzed using two different methodologies: free radical scavenging capacity, using the DPPH method (2,2-diphenyl-1-picrylhydrazyl), a HAT (hydrogen atom transfer) procedure, widely-used for both natural and synthetic derivatives, and also the capacity for scavenging H2O2, one of the most common ROS in degenerative diseases, including cancer.
# DPPH is a commercially-available stable free radical commonly used for in vitro testing of radical scavenging properties of antioxidants.
# Reported methodology was used with minor modifications. To a 60 µM methanolic DPPH solution (1.17 mL), the antioxidant solution (5–7 different solutions, 30 µL) or solvent (control, 30 µL) were added. After 30 min. of incubation in the dark, absorbance was measured at 515 nm, and EC50 values were calculated.
# SW1573 = test: P-glycoprotein assay, wild type line; type: cell-based; conditions: Homo sapiens, 48 h exposure
# Procedure: (§3) This assay allows prediction of whether a certain chemotherapeutic agent could develop chemoresistance when behaving as a P-gp substrate, one of the most common efllux-pumps used for the extrusion of cell xenobiotics. For that purpose, a cell line-based assay was used, in particular the lung cancer cell line in its wild type (SW1573), and its variant overexpressing P-gp (Sw1573/Pgp). Moreover, compounds were tested in the presence and in the absence of verapamil, which is known to inhibit P-gp. Chemotherapeutic agents paclitaxel (PTX) and vinblastine (VB) are used herein as reference compounds. In this assay, the resistance factor (Rf) for a certain compound is defined as the ratio of GI50 in the cell line overexpressing P-gp and the wild one (Table 4), high values of Rf denoting that the compound behaves as a P-gp substrate, and thus, chemoresistance through this mechanism will probably take place.
# SW1573/Pgp = test: P-glycoprotein assay, line overexpressing P-gp; type: cell-based, human; conditions: ratio between GI50 values in SW1573/PGP and SW1573 cells; for Rf w Verapamil: with verapamil; for Rf w/o Verapamil: without verapamil
# Procedure: as §3
# [5] = P-glycoprotein assay, line overexpressing P-gp; type: cell-based, human; conditions: human, 48 h exposure
# Procedure: as §3
# [6] = Homo sapiens, HeLa, read-out: GI50 HeLa (Cervix)
# [7] = Homo sapiens, SW1573, read-out: GI50 SW1573 (Lung)
# [8] = Homo sapiens, HBL-100, read-out: GI50 HBL-100 (Breast)
# [9] = Homo sapiens, A549, read-out: GI50 A549 (Lung)
# [10] = Homo sapiens, HeLa; read-out: GI50 HeLa (Cervix)
# [11] = Homo sapiens, SW1573, Table S1, read-out: GI50 SW1573 (Lung)
# [12] = Homo sapiens, HBL-100; read-out: GI50 HBL-100 (Breast)
# [13] = Homo sapiens, T47D, drug resistant line
# [14] = Homo sapiens, WiDr, drug resistant line
# [15] = Homo sapiens, A549; read-out: GI50 A549 (Lung)
# [16] = with verapamil, reference drugs, read-out: GI50 SW153 w Verapamil
# [17] = without verapamil, reference drugs, read-out: GI50 SW1573 w/o Verapamil
# [18] = with verapamil (concentration not stated), with verapamil, reference drugs, read-out: GI50 SW1573/PGP w Verapamil
compound,measurement,setting,value
3-phenylselenopropanoic acid [Compound 17],GI50,HeLa (cervix); read-out: GI50 HeLa (Cervix),> 100 µM
same,GI50,"[1]; Table S1, read-out: GI50 SW1573 (Lung)",> 100 µM
same,GI50,HBL-100 (breast); read-out: GI50 HBL-100 (Breast),> 100 µM
same,GI50,T-47D (breast); drug resistant line,> 100 µM
same,GI50,WiDr (colon); drug resistant line,> 100 µM
same,GI50,[2]; read-out: GI50 A549 (Lung),> 100 µM
"O=C(O)CCC[Se][Se]CCCC(=O)O [Compound 14, 4,4′-Diselenobisbutyric acid]",GI50,HeLa (cervix); [6],44 ± 13 µM
same,GI50,[1]; [7],> 100 µM
same,GI50,HBL-100 (breast); [8],> 100 µM
same,GI50,"T-47D (breast); Homo sapiens, T47D",50 ± 14 µM
same,GI50,"WiDr (colon); Homo sapiens, WiDr",54 ± 6 µM
same,GI50,[2]; [9],46 ± 14 µM
"c1cc2c(cc1CCC[Se][Se]CCCc1ccc3c(c1)OCO3)OCO2 [Compound 41, Bis[3-(3’, 4’-methylenedioxyphenyl)propyl]diselenide]","GI50 over the tumour cell lines (range, bound or words)",[3],only a moderate antiproliferative agent
same,GI50,HeLa (cervix); [6],31 ± 8 µM
same,GI50,[1]; [7],37 ± 15 µM
same,GI50,HBL-100 (breast); [8],93 ± 10 µM
same,GI50,"T-47D (breast); Homo sapiens, T47D",29 ± 5 µM
same,GI50,"WiDr (colon); Homo sapiens, WiDr",29 ± 8 µM
same,GI50,[2]; [9],32 ± 8 µM
"OCCc1ccc(O)c(O)c1 [HT, hydroxytyrosol, reference compound]",EC50,[4],13.4 ± 0.6 µM
"O=c1c2ccccc2[se]n1-c1ccccc1 [Ebselen, 2-phenyl-1,2-benzoselenazol-3-one, reference compound]",GI50,HeLa (cervix); [10],26 ± 8 µM
same,GI50,[1]; [11],28 ± 4 µM
same,GI50,HBL-100 (breast); [12],13 ± 3 µM
same,GI50,T-47D (breast); [13],90 ± 14 µM
same,GI50,WiDr (colon); [14],> 100 µM
same,GI50,[2]; [15],25 ± 9 µM
"c1ccc(C[Se]CCc2ccc3c(c2)OCO3)cc1 [Compound 38, 1-Benzylseleno-2-(3’, 4’-methylenedioxyphenyl)ethane]",GI50,"SW1573; with verapamil, read-out: GI50 SW153 w Verapamil",15 ± 3 µM
same,GI50,"SW1573; without verapamil, read-out: GI50 SW1573 w/o Verapamil",27 ± 2 µM
same,Rf w Verapamil,SW1573/Pgp,1.6
same,Rf w/o Verapamil,SW1573/Pgp,1.1
same,GI50 at 48 h,"[5]; with verapamil (concentration not stated), with verapamil, read-out: GI50 SW1573/PGP w Verapamil",25 ± 2 µM
same,GI50 at 48 h,"[5]; without verapamil, read-out: GI50 SW1573/PGP w/o Verapamil",29 ± 0.2 µM
same,GI50,HeLa (cervix); [10],5.2 ± 1 µM
same,GI50,[1]; [11],27 ± 5 µM
same,GI50,HBL-100 (breast); [12],14 ± 3 µM
same,GI50,T-47D (breast); [13],4.7 ± 1.2 µM
same,GI50,WiDr (colon); [14],14 ± 2 µM
same,GI50,[2]; [15],19 ± 2 µM
"O=C(O)CSSCC(=O)O [Compound 6, Dithiodiacetic acid]",GI50,HeLa (cervix); [10],> 100 µM
same,GI50,[1]; [11],> 100 µM
same,GI50,HBL-100 (breast); [12],> 100 µM
same,GI50,T-47D (breast); [13],> 100 µM
same,GI50,WiDr (colon); [14],> 100 µM
same,GI50,[2]; [15],> 100 µM
"CC(=O)O[C@H]1C(=O)[C@@]2(C)[C@H]([C@H](OC(=O)c3ccccc3)[C@]3(O)C[C@H](OC(=O)[C@H](O)[C@@H](NC(=O)c4ccccc4)c4ccccc4)C(C)=C1C3(C)C)[C@]1(OC(C)=O)CO[C@@H]1C[C@@H]2O [PTX, paclitaxel, reference compound]",GI50,SW1573; [16],0.0016 ± 0.0002 µM
same,GI50,SW1573; [17],0.0015 ± 0.0005 µM
same,Rf w Verapamil,SW1573/Pgp,2.6
same,Rf w/o Verapamil,SW1573/Pgp,128
same,GI50 at 48 h,[5]; [18],0.0042 ± 0.0009 µM
"O=c1c2ccccc2[se]n1CCc1ccc(O)c(O)c1 [Compound 26, N-[2′-(3′’,4′’-Dihydroxyphenyl)ethyl]-1,2-benzisoselenazole-3(2H)-one]","GI50 over the tumour cell lines (range, bound or words)",[3],moderate antiproliferative properties
same,EC50,[4],7.8 ± 0.2 µM
same,GI50,HeLa (cervix); [6],21 ± 6 µM
same,GI50,[1]; [7],21 ± 12 µM
same,GI50,HBL-100 (breast); [8],21 ± 4 µM
same,GI50,"T-47D (breast); Homo sapiens, T47D",28 ± 6 µM
same,GI50,"WiDr (colon); Homo sapiens, WiDr",30 ± 3 µM
same,GI50,[2]; [9],21 ± 7 µM
"N#C[Se]CCC(=O)O [Compound 19, 3-Selenocyanatopropanoic acid]",GI50,HeLa (cervix); [6],32 ± 10 µM
same,GI50,[1]; [7],> 100 µM
same,GI50,HBL-100 (breast); [8],93 ± 9 µM
same,GI50,"T-47D (breast); Homo sapiens, T47D",36 ± 1 µM
same,GI50,"WiDr (colon); Homo sapiens, WiDr",28 ± 4 µM
same,GI50,[2]; [9],18 ± 6 µM
"O=C(O)CCSSCCC(=O)O [Compound 7, 3,3′-Dithiobispropionic acid]",GI50,HeLa (cervix); [10],> 100 µM
same,GI50,[1]; [11],> 100 µM
same,GI50,HBL-100 (breast); [12],> 100 µM
same,GI50,T-47D (breast); [13],> 100 µM
same,GI50,WiDr (colon); [14],> 100 µM
same,GI50,[2]; [15],> 100 µM
"O=C(CCSSCCC(=O)NCCc1ccc(O)c(O)c1)NCCc1ccc(O)c(O)c1 [Compound 9, 3,3′-Dithiobis{N-[2′’-(3′’’,4′’’-dihydroxyphenyl)ethyl]propanamide}]",GI50,"[3]; Homo sapiens, read-out: GI50 over the tumour cell lines (range, bound or words)",< 45 µM
same,EC50,[4],4.2 ± 0.1 µM
same,GI50,HeLa (cervix); [10],28 ± 2 µM
same,GI50,[1]; [11],42 ± 6 µM
same,GI50,HBL-100 (breast); [12],31 ± 7 µM
same,GI50,T-47D (breast); [13],45 ± 19 µM
same,GI50,WiDr (colon); [14],> 100 µM
same,GI50,[2]; [15],32 ± 1 µM
"O=C(O)CCCSSCCCC(=O)O [Compound 2, 4,4′-Dithiobisbuthyric acid]",GI50,HeLa (cervix); [10],> 100 µM
same,GI50,[1]; [11],> 100 µM
same,GI50,HBL-100 (breast); [12],> 100 µM
same,GI50,T-47D (breast); [13],> 100 µM
same,GI50,WiDr (colon); [14],> 100 µM
same,GI50,[2]; [15],> 100 µM
"O=C(O)CC[Se][Se]CCC(=O)O [Compound 13, 3,3′-Diselenobispropanoic acid]",GI50,HeLa (cervix); [10],18 ± 1 µM
same,GI50,[1]; [11],> 100 µM
same,GI50,HBL-100 (breast); [12],94 ± 8 µM
same,GI50,T-47D (breast); [13],20 ± 8 µM
same,GI50,WiDr (colon); [14],5.6 ± 0.6 µM
same,GI50,[2]; [15],4.1 ± 0.1 µM
"CC[C@]1(O)C[C@@H]2CN(CCc3c([nH]c4ccccc34)[C@@](C(=O)OC)(c3cc4c(cc3OC)N(C)[C@H]3[C@@](O)(C(=O)OC)[C@H](OC(C)=O)[C@]5(CC)C=CCN6CC[C@]43[C@@H]65)C2)C1 [VB, vinblastine, reference compound]",GI50,SW1573; [16],0.0008 ± 0.0002 µM
same,GI50,SW1573; [17],0.0009 ± 0.0003 µM
same,Rf w Verapamil,SW1573/Pgp,1.3
same,Rf w/o Verapamil,SW1573/Pgp,2388
same,GI50 at 48 h,[5]; [18],0.001 ± 0.0005 µM
